Structures are written as SMILES.

The first assay has as its target T1, HIV-1-protease (Human immunodeficiency virus type 1 group M subtype B, UniProt P04585).
T1 construct: made in house
Description: Inhibition of HIV-1-protease with icosapeptide substrate […] (HPLC). The class given is biochemical.
Settings: not given
As to the method: The inhibitory action of the compounds of formula I on the proteolytic activity of HIV-1-protease can be shown, for example, according to known procedures (see A. D. Richards et al., J. Biol. Chem. 265(14), 7733-7736 (1990)). In that method the inhibition of the action of HIV-1-protease (preparation: see S. Billich et al., J. Biol. Chem. 263(34), 17905-17908 (1990)) is measured in the presence of the icosapeptide […] (a synthetic substrate of HIV-1-protease, prepared by peptide synthesis in accordance with known procedures (see J. Schneider et al., Cell 54, 363-368 (1988)), which contains as substrate analogue one of the cleavage sites of the gag-precursor protein (natural substrate of HIV-1-protease). That substrate and its cleavage products are analysed by high performance liquid chromatography (HPLC).
The test compound is dissolved in dimethyl sulfoxide. The enzymatic test is carried out by adding suitable dilutions of the inhibitor in 20 mM β-morpholinoethanesulfonic acid (MES) buffer pH 6.0 to the test mixture. That mixture consists of the above-mentioned icosapeptide (122 µM) in 20 mM MES-buffer pH 6.0. 100 µl are used per test batch. The reaction is started by the addition of […] of HIV-1-protease solution and is stopped after one hour's incubation at 37°C by the addition of 10 µl of 0.3M HClO4. After centrifugation of the sample at 10 000 x g for 5 minutes, 20 µl of the resulting supernatant are applied to a 125 x 4.6 mm Nucleosil® C18-5m-HPLC column (reversed-phase material supplied by Macherey & Nagel, Düren, FRG, based on silica gel that has been charged with C18alkyl chains). The uncleaved icosapeptide and its cleavage products are eluted from the column by means of the following gradient: 100 % eluant 1 → 50 % eluant 1 + 50 % eluant 2 (eluant 1: 10 % acetonitrile, 90 % H2O, 0.1 % trifluoroacetic acid (TFA); eluant 2: 75 % acetonitrile, 25 % H2O, 0.08 % TFA) for 15 minutes, throughflow rate 1 ml/min. The quantification of the eluted peptide fragments is carried out by measuring the peak height of the cleavage product at 215 nm.
Using the test system described above with the icosapeptide […], the IC50 values given below are obtained for the following Examples: […]
As usually defined, the IC50 is the concentration needed to halve the response being measured. `CC[C@H](C)[C@H](NC(=O)OC)C(=O)N[C@@H](Cc1ccccc1)[C@@H](O)CN(Cc1ccc(-c2ccccn2)cc1)NC(=O)[C@@H](NC(=O)OC)C(C)C` [Example 50, 1-[4-(Pyridin-2-yl)-phenyl]-4(S)-hydroxy-2-N-(N-methoxy-carbonyl-(L)-valyl)amino-5(S)-N-(N-methoxycarbonyl-(L)-iso-leucyl)amino-6-phenyl-2-azahexane] came in with a half-maximal inhibitory concentration (IC50) of 28 nM.

The assay is the same for the next values; noted with them: icosapeptide […] 122 µM, 20 mM MES pH 6.0, one hour at 37°C; read-out: IC50.
Regarding `CCOC(=O)N[C@H](C(=O)NN(Cc1ccc(-c2nccs2)cc1)C[C@H](O)[C@H](Cc1ccccc1)NC(=O)[C@@H](NC(=O)OC)C(C)C)C(C)C` [Example 19, 1-[4-(Thiazol-2-yl)-phenyl]-4(S)-hydroxy-2-N-(N-ethoxycarbonyl-(L)-valyl)amino-5(S)-N-(N-methoxycarbonyl-(L)-valyl)amino-6-phenyl-2-azahexane], the IC50 was 22 nM.

For `COC(=O)N[C@H](C(=O)N[C@@H](Cc1ccccc1)[C@@H](O)CN(Cc1ccc(-c2cncs2)cc1)NC(=O)[C@@H](NC(=O)OC)C(C)(C)C)C(C)C` [Example 7, 1-[4-(Thiazol-5-yl)-phenyl]-4(S)-hydroxy-2-N-(N-methoxcarbonyl-(L)-tert-leucyl)amino-5(S)-N-(N-methoxycarbonyl-(L)-valyl)amino-6-phenyl-2-azahexane], the IC50 came to 13 nM.

Take `CC[C@H](C)[C@H](NC(=O)OC)C(=O)NN(Cc1ccc(-c2nnn[nH]2)cc1)C[C@H](O)[C@H](Cc1ccccc1)NC(=O)[C@@H](NC(=O)OC)C(C)(C)C` [Example 29, 1-[4-(Tetrazol-5-yl)-phenyl]-4(S)-hydroxy-2-N-(N-methoxycarbonyl-(L)-iso-leucyl)amino-5(S)-N-(N-methoxycarbonyl-(L)-tert-leucyl)amino-6-phenyl-2-azahexane]: the 50% inhibitory concentration (IC50) turned out to be 14 nM.

For the compound `CC[C@H](C)[C@H](NC(=O)OC)C(=O)NN(Cc1ccc(-c2nnn(C(C)(C)c3ccccc3)n2)cc1)C[C@H](O)[C@H](Cc1ccccc1)NC(=O)[C@@H](NC(=O)OC)C(C)(C)C` [Example 28, 1-{4-[2-(1-Methyl-1-phenyl-ethyl)-2H-tetrazol-5-yl]-phenyl}-4(S)-hydroxy-2-N-(N-methoxycarbonyl-(L)-iso-leucyl)amino-5(S)-N-(N-methoxycarbonyl-(L)-tert-leucyl)amino-6-phenyl-2-azahexane], the 50% inhibitory concentration (IC50) stood at 83 nM.

On to `CCOC(=O)N[C@H](C(=O)NN(Cc1ccc(-c2cncs2)cc1)C[C@H](O)[C@H](Cc1ccccc1)NC(=O)[C@@H](NC(=O)OC)C(C)(C)C)C(C)C` [Example 6, 1-[4-(Thiazol-5-yl)-phenyl]-4(S)-hydroxy-2-N-(N-ethoxycarbonyl-(L)-valyl)-amino-5(S)-N-(N-methoxycarbonyl-(L)-tert-leucyl)amino-6-phenyl-2-azahexane], for which the IC50 was 22 nM.

For `COC(=O)N[C@H](C(=O)N[C@@H](Cc1ccccc1)[C@@H](O)CN(Cc1ccc(-c2cccs2)cc1)NC(=O)[C@@H](NC(=O)OC)C(C)C)C(C)C` [Example 45, 1-[4-(Thiophen-2-yl)-phenyl]-4(S)-hydroxy-5(S)-2,5-bis[N-(N-methoxycarbonyl-(L)-valyl)amino]-6-phenyl-2-azahexane], the IC50 came out at 12 nM.

Turning to `CC[C@H](C)[C@H](NC(=O)OC)C(=O)N[C@@H](Cc1ccccc1)[C@@H](O)CN(Cc1ccc(-c2nnn(C(C)(C)c3ccccc3)n2)cc1)NC(=O)[C@@H](NC(=O)OC)C(C)(C)C` [Example 31, 1-{4-[2-(1-Methyl-1-phenyl-ethyl)-2H-tetrazol-5-yl]-phenyl}-4(S)-hydroxy-2-N-(N-methoxycarbonyl-(L)-tert-leucyl)amino-5(S)-N-(N-methoxycarbonyl-(L)-iso-leucyl)amino-6-phenyl-2-azahexane], the concentration for half-maximal inhibition (IC50) stood at 171 nM.

As to `COC(=O)N[C@H](C(=O)N[C@@H](Cc1ccccc1)[C@@H](O)CN(Cc1ccc(-c2nnnn2C)cc1)NC(=O)[C@@H](NC(=O)OC)C(C)(C)C)C(C)(C)C` [27 (1-methyl-1H-tetrazolyl isomer), 1-[4-(1-methyl-1H-tetrazol-5-yl)-phenyl]-4(S)-hydroxy-5(S)-2,5-bis[N-(N-methoxycarbonyl-(L)-tert-leucyl)amino]-6-phenyl-2-azahexane], the concentration for half-maximal inhibition (IC50) turned out to be 51 nM.

On to `CC[C@H](C)[C@H](NC(=O)OC)C(=O)N[C@@H](Cc1ccccc1)[C@@H](O)CN(Cc1ccc(-c2nccs2)cc1)NC(=O)[C@@H](NC(=O)OC)C(C)C` [Example 23, 1-[4-(Thiazol-2-yl)-phenyl]-4(S)-hydroxy-2-N-(N-methoxycarbonyl-(L)-valyl)amino-5(S)-N-(N-methoxycarbonyl-(L)-iso-leucyl)amino-6-phenyl-2-azahexane], for which the IC50 turned out to be 34 nM.

As for `CC[C@H](C)[C@H](NC(=O)OC)C(=O)N[C@@H](Cc1ccccc1)[C@@H](O)CN(Cc1ccc(-c2cncs2)cc1)NC(=O)[C@@H](NC(=O)OC)C(C)C` [Example 12, 1-[4-(Thiazol-5-yl)-phenyl]-4(S)-hydroxy-2-N-(N-methoxycarbonyl-(L)-valyl)amino-5(S)-N-(N-methoxycarbonyl-(L)-iso-leucyl)amino-6-phenyl-2-azahexane], the IC50 is 20 nM.

In the case of `COC(=O)N[C@H](C(=O)N[C@@H](Cc1ccccc1)[C@@H](O)CN(Cc1ccc(-c2cncs2)cc1)NC(=O)[C@@H](NC(=O)OC)C(C)(C)C)C(C)(C)C` [Example 3, 1-[4-(Thiazol-5-yl)-phenyl]-4(S)-hydroxy-5(S)-2,5-bis[N-(N-methoxycarbonyl-(L)-tert-leucyl)amino]-6-phenyl-2-azahexane], the 50% inhibitory concentration (IC50) turned out to be 41 nM.

Regarding `CCOC(=O)N[C@H](C(=O)NN(Cc1ccc(-c2cncs2)cc1)C[C@H](O)[C@H](Cc1ccccc1)NC(=O)[C@@H](NC(=O)OC)C(C)C)C(C)C` [Example 8, 1-[4-(Thiazol-5-yl)-phenyl]-4(S)-hydroxy-2-N-(N-ethoxycarbonyl-(L)-valyl)-amino-5(S)-N-(N-methoxycarbonyl-(L)-valyl)amino-6-phenyl-2-azahexane], the concentration for half-maximal inhibition (IC50) turned out to be 10 nM.

For the compound `COC(=O)N[C@H](C(=O)N[C@@H](Cc1ccccc1)[C@@H](O)CN(Cc1ccc(-c2nccs2)cc1)NC(=O)[C@@H](NC(=O)OC)C(C)(C)C)C(C)(C)C` [Example 16, 1-[4-(Thiazol-2-yl)-phenyl]-4(S)-hydroxy-5(S)-2,5-bis[N-(N-methoxycarbonyl-(L)-tert-leucyl)amino]-6-phenyl-2-azahexane], the IC50 came out at 33 nM.

Regarding `COC(=O)N[C@H](C(=O)N[C@@H](Cc1ccccc1)[C@@H](O)CN(Cc1ccc(-c2cnccn2)cc1)NC(=O)[C@@H](NC(=O)OC)C(C)(C)C)C(C)C` [Example 42, 1-[4-(Pyrazin-2-yl)-phenyl]-4(S)-hydroxy-2-[N-(N-methoxycarbonyl-(L)-tert-leucyl)amino]-5(S)-[N-(N-methoxycarbonyl-(L)-valyl)amino]-6-phenyl-2-azahexane], the IC50 is 15 nM.

For the compound `COC(=O)N[C@@H](CSC)C(=O)NN(Cc1ccc(-c2cncs2)cc1)C[C@H](O)[C@H](Cc1ccccc1)NC(=O)[C@@H](NC(=O)OC)C(C)C` [Example 10, 1-[4-(Thiazol-5-yl)-phenyl]-4(S)-hydroxy-2-N-(N-methoxycarbonyl-(L)-S-methylcysteinyl)amino-5(S)-N-(N-methoxycarbonyl-(L)-valyl)amino-6-phenyl-2-azahexane], the IC50 was found to be 20 nM.

In the case of `COC(=O)N[C@H](C(=O)N[C@@H](Cc1ccccc1)[C@@H](O)CN(Cc1ccc(-c2nnn[nH]2)cc1)NC(=O)[C@@H](NC(=O)OC)C(C)(C)C)C(C)(C)C` [Example 26, 1-[4-(Tetrazol-5-yl)-phenyl]-4(S)-hydroxy-5(S)-2,5-bis[N-(N-methoxycarbonyl-(L)-tert-leucyl)amino]-6-phenyl-2-azahexane], the 50% inhibitory concentration (IC50) is 21 nM.

For `COC(=O)N[C@H](C(=O)NN(Cc1ccc(-c2ccccn2)cc1)C[C@H](O)[C@H](Cc1ccccc1)NC(=O)[C@@H](NC(=O)OC)C(C)(C)C)C(C)C` [Example 48, 1-[4-(Pyridin-2-yl)-phenyl]-4(S)-hydroxy-2-N-(N-methoxy-carbonyl-(L)-valyl)amino-5(S)-N-(N-methoxycarbonyl-(L)-tert-leucyl)amino-6-phenyl-2-azahexane], the half-maximal inhibitory concentration (IC50) is 31 nM.

With `CC[C@H](C)[C@H](NC(=O)OC)C(=O)NN(Cc1ccc(-c2cnccn2)cc1)C[C@H](O)[C@H](Cc1ccccc1)NC(=O)[C@@H](NC(=O)OC)C(C)C` [Example 41, 1-[4-(Pyrazin-2-yl)-phenyl]-4(S)-hydroxy-2-[N-(N-methoxycarbonyl-(L)-iso-leucyl)amino]-5(S)-[N-(N-methoxycarbonyl-(L)-valyl)amino]-6-phenyl-2-azahexane], the half-maximal inhibitory concentration (IC50) amounted to 32 nM.

These data come from patent publication EP0900210B1, “ANTIVIRALLY ACTIVE HETEROCYCLIC AZAHEXANE DERIVATIVES” (Novartis AG, priority 1996, dated 1997).
